{"source": "paper PMC9780888", "about": "“4-Isobutylmethcathinone—A Novel Synthetic Cathinone with High In Vitro Cytotoxicity and Strong Receptor Binding Preference of Enantiomers” (Pharmaceuticals, 2022)", "key": {"[1]": {"molecular_target": "T1, ADRB1 (beta-1 adrenergic receptor) (Homo sapiens, UniProt P08588)", "T1 construct": "Tango construct (TEV cleavage site and tTA, as described for the dopamine receptor plasmids); host or cells: HTLA (HEK 293-derived)", "T1 sequence (P08588 whole entry)": "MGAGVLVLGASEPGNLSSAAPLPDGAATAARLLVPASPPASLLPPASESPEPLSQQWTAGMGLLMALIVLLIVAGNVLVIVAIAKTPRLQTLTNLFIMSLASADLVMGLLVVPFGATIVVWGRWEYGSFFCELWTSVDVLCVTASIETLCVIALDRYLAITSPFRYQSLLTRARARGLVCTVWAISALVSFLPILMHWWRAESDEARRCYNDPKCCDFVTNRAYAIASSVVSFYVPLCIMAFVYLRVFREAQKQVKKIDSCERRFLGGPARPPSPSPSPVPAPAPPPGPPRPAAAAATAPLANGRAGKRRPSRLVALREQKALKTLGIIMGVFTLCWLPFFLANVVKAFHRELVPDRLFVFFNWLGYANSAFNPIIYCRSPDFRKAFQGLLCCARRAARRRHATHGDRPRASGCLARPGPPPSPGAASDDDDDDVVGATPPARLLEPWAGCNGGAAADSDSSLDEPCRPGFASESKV", "assay": "PRESTO-Tango β-arrestin 2 recruitment assay, ADRB1", "assay_type": "cell-based", "conditions": "ADRB1, 500 nM", "protocol": "(§1) The HTLA cell line was used for the PRESTO-Tango β-arrestin recruitment assay. The HTLA cells were provided as a gift from the laboratory of Bryan Roth (Roth Lab, USA). It is a human cell line derived from human embryonic kidney cells (HEK 293) stably expressing β-arrestin in a fusion with the tobacco etch virus protease (TEV) protease and the luciferase gene under the control of the transcription factor tetracycline transcriptional activator (tTA). The HTLA cells were cultured under standard incubation conditions (37 °C, 5% CO2, 95% humidity) in DMEM with 10% FBS. […]\nThe transfected HTLA cells were incubated for 24 h, and then 1 × 10^4 cells were seeded per well of a white 96-well clear bottom plate (Brand, Germany) in 40 μL of DMEM with 1% charcoal-stripped FBS (Thermo Fisher Scientific, USA). […] After 5 min., the luminescence was measured using a multi-mode microplate reader SpectraMax iD5 (Molecular Devices, San Jose, CA, USA) measuring the entire wavelength spectrum. All samples were measured in quadruplicates. The data were evaluated by Prism 7 software (GraphPad, […], CA, USA). […]\nThe error bar represents standard deviation from four replicates. The data were processed and evaluated by GraphPad Prism Software using one-way ANOVA: * p<0.05; ** p<0.01; *** […]"}, "[2]": {"molecular_target": "T2, HTR2A (5-hydroxytryptamine receptor 2A) (Homo sapiens, UniProt P28223)", "T2 construct": "Tango construct (TEV cleavage site and tTA, as described for the dopamine receptor plasmids); host or cells: HTLA (HEK 293-derived)", "T2 sequence (P28223 whole entry)": "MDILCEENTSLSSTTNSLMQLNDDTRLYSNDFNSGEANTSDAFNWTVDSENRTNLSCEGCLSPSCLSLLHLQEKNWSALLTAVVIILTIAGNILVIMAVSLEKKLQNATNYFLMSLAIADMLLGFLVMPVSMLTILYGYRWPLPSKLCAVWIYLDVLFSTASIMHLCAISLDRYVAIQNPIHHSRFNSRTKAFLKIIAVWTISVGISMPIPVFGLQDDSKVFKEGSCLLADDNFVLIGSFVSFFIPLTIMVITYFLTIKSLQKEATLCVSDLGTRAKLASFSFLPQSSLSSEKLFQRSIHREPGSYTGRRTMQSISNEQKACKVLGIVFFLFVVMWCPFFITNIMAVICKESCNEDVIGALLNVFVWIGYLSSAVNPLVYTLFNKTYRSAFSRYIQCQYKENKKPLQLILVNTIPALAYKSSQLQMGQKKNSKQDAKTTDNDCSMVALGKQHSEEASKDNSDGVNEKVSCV", "assay": "PRESTO-Tango β-arrestin 2 recruitment assay, HTR2A", "assay_type": "cell-based", "conditions": "0-500 nM", "protocol": "as §1\nThe transfected HTLA cells were incubated for 24 h, and then 1 × 10^4 cells were seeded per well of a white 96-well clear bottom plate (Brand, Germany) in 40 μL of DMEM with 1% charcoal-stripped FBS (Thermo Fisher Scientific, USA). […] After 5 min., the luminescence was measured using a multi-mode microplate reader SpectraMax iD5 (Molecular Devices, San Jose, CA, USA) measuring the entire wavelength spectrum. All samples were measured in quadruplicates. The data were evaluated by Prism 7 software (GraphPad, San Jose, CA, USA).\nFigure S13: β-arrestin 2 recruitment PRESTO-Tango assay: activation of the serotonin receptors. […] The data were processed and evaluated by GraphPad Prism Software using one-way […]"}}, "data": [{"smiles": "CNC(C)C(=O)c1ccc(CC(C)C)cc1.Cl", "note": "(centres unmarked) [IBMcat, 4-isobutylmethcathinone hydrochloride]", "values": [{"measurement": "increase in the luminescence signal", "setting": "[1]", "result": 3, "unit": "fold"}, {"measurement": "agonistic activity for HTR2A", "setting": "[2]", "result": "did not exhibit any agonistic activity"}]}]}
